Values after ≈ are worked out from the molar mass of the structure shown. Active and inactive are the calls of the source. The rule behind the calls is not given here.

One test relates to L929. Nature of the test: Cytotoxicity against mouse L929 cells assessed as reduction in cell viability by MTT assay. Type of test: functional, cell-based.
A further test has as its system Micrococcus luteus. In words: Antimicrobial activity against Micrococcus luteus DSM1790 by serial dilution method. Type of test: functional.
The next test has as its system Bacillus subtilis. In words: Antimicrobial activity against Bacillus subtilis DSM10 by serial dilution method. Type of test: functional.
The next test relates to Candida albicans. Nature of the test: Antimicrobial activity against Candida albicans DSM1665 by serial dilution method. Type of test: functional.
The next test relates to Staphylococcus aureus. Nature of the test: Antimicrobial activity against Staphylococcus aureus DSM346 by serial dilution method. Type of test: functional.
The next test relates to Mucor hiemalis. Nature of the test: Antimicrobial activity against Mucor hiemalis DSM2656 by serial dilution method. Type of test: functional.
In test [1] the test system is Mycolicibacterium smegmatis. In words: Antimicrobial activity against Mycobacterium smegmatis DSM44200 by serial dilution method. It counts as functional.
Another test deals with KB 3-1. Nature of the test: Cytotoxicity against human KB3.1 cells assessed as reduction in cell viability by MTT assay. Type of test: functional, cell-based. (Tetrazolium dyes change colour on reduction, which living cells bring about.)
The next test concerns Wickerhamomyces anomalus. In words: Antimicrobial activity against Pichia anomala DSM6766 by serial dilution method. Type of test: functional.
[2] abbreviates: Mus musculus, L929, read-out: IC50.

In general, IC50 refers to the point on the concentration scale where inhibition reaches its midpoint. With `C/C(=C\c1csc(C)n1)[C@@H]1C[C@@H]2O[C@]2(C)CCC[C@H](C)[C@H](O)[C@@H](C)C(=O)C(C)(C)[C@@H](O)CC(=O)O1` [PATUPILONE], in the test on L929 (setting [2]), the IC50 was 0.0026 µM.
One may read the MIC as the lowest concentration that inhibits growth of the organism. For `CN(C)[C@@H]1C(O)=C(C(N)=O)C(=O)[C@@]2(O)C(O)=C3C(=O)c4c(O)cccc4[C@@](C)(O)[C@H]3[C@H](O)[C@@H]12` [OXYTETRACYCLINE], the minimal inhibitory concentration (MIC) against Micrococcus luteus stood at 0.3 µg/mL (≈ 0.652 µM); against Bacillus subtilis, 9.2 µg/mL (≈ 20 µM).
Take `COc1c(O)c2c(c3cnc4c(c13)C(=O)C=C(C)C4=O)[C@@H](C(C)C)CC[C@@H]2C`: the MIC in the test with Candida albicans came out at 100 µg/mL (≈ 264 µM); against Staphylococcus aureus, 50 µg/mL (≈ 132 µM); with Mucor hiemalis it was 50 µg/mL (≈ 132 µM); against Micrococcus luteus, 6.3 µg/mL (≈ 16.6 µM); against Wickerhamomyces anomalus (Hansenula anomala) it was 100 µg/mL (≈ 264 µM); with Bacillus subtilis, 6.3 µg/mL (≈ 16.6 µM). Further, in test [1], the MIC result was “inactive”. In addition, the half-maximal inhibitory concentration (IC50) result in the test with KB 3-1 and in the test on L929 (l929) was “Not Active” throughout.
As to GENTAMICIN, the MIC with Staphylococcus aureus was found to be 9.2 µg/mL.
Take NYSTATIN: the MIC against Candida albicans came to 9.2 µg/mL; with Mucor hiemalis, 9.2 µg/mL; in the test with Wickerhamomyces anomalus it was 4.6 µg/mL.
Regarding `CC1=CC(=O)C(c2c(C=O)c(O)c(O)c3c2[C@@H](C(C)C)CC[C@@H]3C)=C(O)C1=O`, the MIC in the test on Candida albicans amounted to 100 µg/mL (≈ 260 µM); with Staphylococcus aureus it was 50 µg/mL (≈ 130 µM); against Mucor hiemalis it was 25 µg/mL (≈ 65 µM); in test [1] it was 100 µg/mL (≈ 260 µM); in the test on Micrococcus luteus, 3.1 µg/mL (≈ 8.06 µM); against Wickerhamomyces anomalus (Hansenula anomala) it was 100 µg/mL (≈ 260 µM). Further, in the test with Bacillus subtilis, the MIC was determined as 12.5 µg/mL (≈ 32.5 µM). Besides, the IC50 result in the test on KB 3-1 was “Not Active”; in the test with L929 (setting [2]), 5.5 µM.
`NC[C@H]1O[C@H](O[C@H]2[C@H](O)[C@@H](O[C@H]3O[C@H](CO)[C@@H](O)[C@H](N)[C@H]3O)[C@H](N)C[C@@H]2N)[C@H](O)[C@@H](O)[C@@H]1O` [KANAMYCIN] came in with an MIC in test [1] of 0.6 µg/mL (≈ 1.24 µM).

The values are drawn from ChEMBL document CHEMBL4665748, “Heimiomycins A-C and Calamenens from the African Basidiomycete Heimiomyces sp” (J Nat Prod, 2020).
